Measured values published in patent US11299712B2, “Method for inducing differentiation of alveolar epithelial cells” (KYOTO UNIVERSITY, priority 2015, dated 2022).

Test system: type II alveolar epithelial cells
Assay: Three-dimensional subculture of type II alveolar epithelial cells (AT2-P0 to AT2-P1) in medium for Step 5 with additives, SFTPC-GFP reporter cells
Type: cell-based, human
Conditions: for percentage of type II alveolar epithelial cells maintained of the whole including fibroblasts used for coculture / percentage of type II alveolar epithelial cells maintained relative to the epithelial cell component: AT2-P1, medium for Step 5 plus additive (300 ng/ml WIF, 100 ng/ml IGF2, 10 ng/ml EGF, 20 ng/ml NRG1 β, 3 μM CHIR99021); for percentage of type II alveolar epithelial cells maintained of the whole including fibroblasts used for coculture: control 9.4%; for percentage of type II alveolar epithelial cells maintained relative to the epithelial cell component: control 48.4%; for maintenance of type II alveolar epithelial cells compared with medium supplemented with EGF, NRG1β, CHIR99021: WIF1 300 ng/ml or IGF2 100 ng/ml vs EGF 10 ng/ml, NRG1β 20 ng/ml, CHIR99021 3 μM; for maintenance of type II alveolar epithelial cells in subculture (FIG. 17): medium for Step 5 supplemented with WIF1 (300 ng/ml) or IGF2 (100 ng/ml)
Method: On Day 35 of type II alveolar epithelial cell induction in Example 1 (i.e., upon completion of Step 5), the cell mass composed of fibroblasts and spheroids subjected to three-dimensional coculture was removed from the Cell Culture Inserts. The removed cell mass was cut into small pieces of approximately 1 mm with the use of a clean surgical knife, the cells were recovered with the addition of PBS, and centrifugation was carried out at 900 rpm for 5 minutes to remove the supernatant. 0.1% Trypsin/EDTA was added to the precipitate and incubation was then carried out at 37° C. for 15 minutes while adequately repeating pipetting.
Subsequently, DMEM supplemented with 2% FBS was added to neutralize trypsin, followed by centrifugation at 4° C. and 900 rpm for 7 minutes. The supernatant was suction-removed, 1% BSA/PBS was added to the remaining cell pellet, and the resultant was centrifuged again at 4° C. and 900 rpm for 5 minutes. The cell pellet was suspended in 1% BSA/PBS, the mouse anti-human Ep-CAM antibody (Santa Cruz) was added thereto, and the reaction was allowed to proceed at 4° C. for 20 minutes.
Subsequently, the cells were washed 2 times with 1% BSA/PBS, the ALEXA FLUOR® 647-labeled anti-mouse antibody (Life Technologies) was added thereto, and the reaction was allowed to proceed at 4° C. for 20 minutes. After the reaction product was washed 2 times with 1% BSA/PBS, propidium iodide was added in the end, and SFTPC-GFP-positive cells were isolated via FACS with the use of BD FACSAria® II or Aria® III (BD Biosciences). The isolated cells were used as the type II alveolar epithelial cells (AT2-P0).
When type II alveolar epithelial cells were to be subcultured, the type II alveolar epithelial cells were mixed with human fetal lung fibroblasts immediately after isolation, or cryopreserved type II alveolar epithelial cells were mixed with human fetal lung fibroblasts at a ratio of 1:50, the cell suspension of the medium for Step 5 comprising the cells at a cell density of 2.5×10^6 cells/ml and Y-27632 at the final concentration of 10 μM was mixed with MATRIGEL® (Corning) at a ratio of 1:1 at a low temperature, the resultant was immediately added to the upper layer of the Cell Culture Inserts, and the medium for Step 5 was added to the lower layer. The amount to be added to the upper layer of the 12-well plate Cell Culture Inserts is preferably 200 to 400 μL and the amount to be added to the lower layer thereof is preferably 1 ml.
On the first 2 days after the subculture, Y-27632 was added to the medium for Step 5 to the final concentration of 10 μM. Thereafter, the medium for Step 5 of the lower layer was selectively exchanged with another medium every other day. The type II alveolar epithelial cells were isolated 14 days after the initiation of culture, and culture was continued by repeating the three-dimensional coculture with the human fetal lung fibroblasts. As a subculture goes on to the following generation, the cells were designated as AT2-P1, AT2-P2. . . .

Molecule: Cc1c[nH]c(-c2cnc(NCCNc3ccc(C#N)cn3)nc2-c2ccc(Cl)cc2Cl)n1 [CHIR99021, 6-[2-[4-(2,4-dichlorophenyl)-5-(4-methyl-1H-imidazol-2-yl)pyrimidin-2-ylamino]-ethylamino]pyridine-3-carbonitrile, reference compound]
- percentage of type II alveolar epithelial cells maintained of the whole including fibroblasts used for coculture: 0.5%
- percentage of type II alveolar epithelial cells maintained relative to the epithelial cell component: 23.8%

Molecule: EGF: EGF (Wako), medium additive
- percentage of type II alveolar epithelial cells maintained of the whole including fibroblasts used for coculture: 1.2%
- percentage of type II alveolar epithelial cells maintained relative to the epithelial cell component: 5.3%

Molecule: IGF2: protein encoded by the polynucleotide shown in NCBI Accession Number NM_000612 (R&D Systems)
- percentage of type II alveolar epithelial cells maintained of the whole including fibroblasts used for coculture: 16.6%
- percentage of type II alveolar epithelial cells maintained relative to the epithelial cell component: 58.0%
- maintenance of type II alveolar epithelial cells compared with medium supplemented with EGF, NRG1β, CHIR99021: maintained with higher efficiency
- maintenance of type II alveolar epithelial cells in subculture (FIG. 17): efficiently maintained

Molecule: WIF1: WNT signal inhibitor; protein encoded by the polynucleotide shown in NCBI Accession Number NM_007191 (R&D Systems)
- percentage of type II alveolar epithelial cells maintained of the whole including fibroblasts used for coculture: 20.2%
- percentage of type II alveolar epithelial cells maintained relative to the epithelial cell component: 54.4%
- maintenance of type II alveolar epithelial cells compared with medium supplemented with EGF, NRG1β, CHIR99021: maintained with higher efficiency
- maintenance of type II alveolar epithelial cells in subculture (FIG. 17): efficiently maintained
